Active and inactive are the calls of the source. No cut-off for these calls is given here.

For the test, the system named is HepG2. Put plainly: Antimigratory activity against human HepG2 cells assessed as inhibition of cell migration at 100 uM measured upto 24 hrs by inverted microscopy based scratch wound healing assay. The class given is functional.
As to `C/C(=C\CC[C@@](C)(O)[C@@H]1[C@H](O)C[C@H]2[C@@]1(C)CC[C@H]1C(C)(C)[C@@H](O[C@@H]3O[C@H](CO[C@@H]4OC[C@@H](O)[C@H](O)[C@H]4O)[C@@H](O)[C@H](O)[C@H]3O[C@@H]3O[C@@H](C)[C@H](O)[C@@H](O)[C@H]3O)CC[C@]21C)C[C@@H]1OC(=O)O[C@H]1[C@](C)(O)CO[C@@H]1O[C@H](CO)[C@@H](O)[C@H](O)[C@H]1O`, the result was Active.

In the case of `C/C(=C\CC[C@@](C)(O)[C@@H]1[C@H](O)C[C@H]2[C@@]1(C)CC[C@H]1C(C)(C)[C@@H](O[C@@H]3O[C@H](CO[C@@H]4OC[C@@H](O)[C@H](O)[C@H]4O)[C@@H](O)[C@H](O)[C@H]3O[C@@H]3O[C@@H](C)[C@H](O)[C@@H](O)[C@H]3O)CC[C@]21C)C[C@@H]1OC(=O)O[C@H]1[C@](C)(O)CO`, the result was Active.

`C/C(=C\CC[C@@](C)(O)[C@@H]1[C@H](O)C[C@H]2[C@@]1(C)CC[C@H]1C(C)(C)[C@@H](O[C@@H]3O[C@H](CO[C@@H]4OC[C@@H](O)[C@H](O)[C@H]4O)[C@@H](O)[C@H](O)[C@H]3O[C@@H]3O[C@@H](C)[C@H](O)[C@@H](O)[C@H]3O)CC[C@]21C)C[C@H](O)[C@@H](O)[C@@](C)(O)CO[C@@H]1O[C@H](CO)[C@@H](O)[C@H](O)[C@H]1O`: the outcome was Active.

As for `CC(=O)N[C@H]1[C@H](O[C@H]2[C@H](O[C@H]3[C@H](O[C@H]4CC[C@]5(C)[C@H]6C[C@@H](O)[C@@H]([C@](C)(O)CC/C=C(\C)C[C@@H]7OC(=O)O[C@H]7[C@](C)(O)CO)[C@]6(C)CC[C@H]5C4(C)C)O[C@H](CO[C@@H]4OC[C@@H](O)[C@H](O)[C@H]4O)[C@@H](O)[C@@H]3OC(C)=O)O[C@@H](C)[C@H](O)[C@H]2O)O[C@H](CO)[C@@H](O)[C@@H]1O`, the outcome was Active.

As for `CC(=O)N[C@H]1[C@H](O[C@H]2[C@H](O[C@H]3[C@H](O[C@H]4CC[C@]5(C)[C@H]6C[C@@H](O)[C@@H]([C@](C)(O)CC/C=C(\C)C[C@H](O)[C@@H](O)[C@@](C)(O)CO)[C@]6(C)CC[C@H]5C4(C)C)O[C@H](CO[C@@H]4OC[C@@H](O)[C@H](O)[C@H]4O)[C@@H](O)[C@@H]3O)O[C@@H](C)[C@H](O)[C@H]2O)O[C@H](CO)[C@@H](O)[C@@H]1O`, the outcome was Active.

Consider `CC(=O)N[C@H]1[C@H](O[C@H]2[C@H](O[C@H]3[C@H](O[C@H]4CC[C@]5(C)[C@H]6C[C@@H](O)[C@@H]([C@](C)(O)CC/C=C(\C)C[C@@H]7OC(=O)O[C@H]7C(C)(C)O)[C@]6(C)CC[C@H]5C4(C)C)O[C@H](CO[C@@H]4OC[C@@H](O)[C@H](O)[C@H]4O)[C@@H](O)[C@@H]3O)O[C@@H](C)[C@H](O)[C@H]2O)O[C@H](CO)[C@@H](O)[C@@H]1O`, for which the result was Active.

As to `CC(=O)N[C@H]1[C@H](O[C@H]2[C@H](O[C@H]3[C@H](O[C@H]4CC[C@]5(C)[C@H]6C[C@@H](O)[C@@H]([C@](C)(O)CC/C=C(\C)C[C@H](O)[C@@H](O)[C@@](C)(O)CO)[C@]6(C)CC[C@H]5C4(C)C)O[C@H](CO[C@@H]4OC[C@@H](O)[C@H](O)[C@H]4O)[C@@H](O)[C@@H]3O)O[C@@H](C)[C@H](O)[C@H]2O)O[C@H](CO)[C@@H](O)[C@@H]1O[C@@H]1OC[C@H](O)[C@H](O)[C@H]1O`, the outcome was Active.

`CC(=O)N[C@H]1[C@H](O[C@H]2[C@H](O[C@H]3[C@H](O[C@H]4CC[C@]5(C)[C@H]6C[C@@H](O)[C@@H]([C@](C)(O)CC/C=C(\C)C[C@@H]7OC(=O)O[C@H]7[C@](C)(O)CO)[C@]6(C)CC[C@H]5C4(C)C)O[C@H](CO[C@@H]4OC[C@@H](O)[C@H](O)[C@H]4O)[C@@H](O)[C@@H]3O)O[C@@H](C)[C@H](O)[C@H]2O)O[C@H](CO)[C@@H](O)[C@@H]1O[C@@H]1OC[C@H](O)[C@H](O)[C@H]1O`: the outcome was Active.

As to `CC(=O)N[C@H]1[C@H](O[C@H]2[C@H](O[C@H]3[C@H](O[C@H]4CC[C@]5(C)[C@H]6C[C@@H](O)[C@@H]([C@](C)(O)CC/C=C(\C)C[C@H](O)[C@@H](O)[C@@](C)(O)CO[C@@H]7O[C@H](CO)[C@@H](O)[C@H](O)[C@H]7O)[C@]6(C)CC[C@H]5C4(C)C)O[C@H](CO[C@@H]4OC[C@@H](O)[C@H](O)[C@H]4O)[C@@H](O)[C@@H]3O)O[C@@H](C)[C@H](O)[C@H]2O)O[C@H](CO)[C@@H](O)[C@@H]1O`, the result was Active.

Take `CC(=O)N[C@H]1[C@H](O[C@H]2[C@H](O[C@H]3[C@H](O[C@H]4CC[C@]5(C)[C@H]6C[C@@H](O)[C@@H]([C@](C)(O)CC/C=C(\C)C[C@H](O)[C@H](O)C(C)(C)O)[C@]6(C)CC[C@H]5C4(C)C)O[C@H](CO[C@@H]4OC[C@@H](O)[C@H](O)[C@H]4O)[C@@H](O)[C@@H]3O)O[C@@H](C)[C@H](O)[C@H]2O)O[C@H](CO)[C@@H](O)[C@@H]1O[C@@H]1OC[C@H](O)[C@H](O)[C@H]1O`: the outcome was Active.

Consider `CC(=O)N[C@H]1[C@H](O[C@H]2[C@H](O[C@H]3[C@H](O[C@H]4CC[C@]5(C)[C@H]6C[C@@H](O)[C@@H]([C@](C)(O)CC/C=C(\C)C[C@@H]7OC(=O)O[C@H]7[C@](C)(O)CO)[C@]6(C)CC[C@H]5C4(C)C)O[C@H](CO[C@@H]4OC[C@@H](O)[C@H](O)[C@H]4O)[C@@H](OC(C)=O)[C@@H]3O)O[C@@H](C)[C@H](O)[C@H]2O)O[C@H](CO)[C@@H](O)[C@@H]1O`, for which the result was Active.

Turning to `CC(=O)N[C@H]1[C@H](O[C@H]2[C@H](O[C@H]3[C@H](O[C@H]4CC[C@]5(C)[C@H]6C[C@@H](O)[C@@H]([C@](C)(O)CC/C=C(\C)C[C@@H]7OC(=O)O[C@H]7[C@](C)(O)CO)[C@]6(C)CC[C@H]5C4(C)C)O[C@H](CO[C@@H]4OC[C@@H](O)[C@H](O)[C@H]4O)[C@@H](O)[C@@H]3O)O[C@@H](C)[C@H](O)[C@H]2O)O[C@H](CO)[C@@H](O)[C@@H]1O`, the outcome was Active.

Turning to `CC(=O)N[C@H]1[C@H](O[C@H]2[C@H](O[C@H]3[C@H](O[C@H]4CC[C@]5(C)[C@H]6C[C@@H](O)[C@@H]([C@](C)(O)CC/C=C(\C)C[C@H](O)[C@H](O)C(C)(C)O)[C@]6(C)CC[C@H]5C4(C)C)O[C@H](CO[C@@H]4OC[C@@H](O)[C@H](O)[C@H]4O)[C@@H](O)[C@@H]3O)O[C@@H](C)[C@H](O)[C@H]2O)O[C@H](CO)[C@@H](O)[C@@H]1O`, the outcome was Active.

For `C/C(=C\CC[C@@](C)(O)[C@@H]1[C@H](O)C[C@H]2[C@@]1(C)CC[C@H]1C(C)(C)[C@@H](O[C@@H]3O[C@H](CO[C@@H]4OC[C@@H](O)[C@H](O)[C@H]4O)[C@@H](O)[C@H](O)[C@H]3O[C@@H]3O[C@@H](C)[C@H](O)[C@@H](O)[C@H]3O)CC[C@]21C)C[C@H](O)[C@@H](O)[C@@](C)(O)CO`, the outcome was Active.

For `CC(=O)N[C@H]1[C@H](O[C@H]2[C@H](O[C@H]3[C@H](O[C@H]4CC[C@]5(C)[C@H]6C[C@@H](O)[C@@H]([C@](C)(O)CC/C=C(\C)C[C@H](O)[C@H](O)C(C)(C)O)[C@]6(C)CC[C@H]5C4(C)C)O[C@H](CO)[C@@H](O)[C@@H]3O)O[C@@H](C)[C@H](O)[C@H]2O)O[C@H](CO)[C@@H](O)[C@@H]1O`, the result was Active.

With `CC(=O)N[C@H]1[C@H](O[C@H]2[C@H](O[C@H]3[C@H](O[C@H]4CC[C@]5(C)[C@H]6C[C@@H](O)[C@@H]([C@](C)(O)CC/C=C(\C)C[C@@H]7OC(=O)O[C@H]7[C@](C)(O)CO[C@@H]7O[C@H](CO)[C@@H](O)[C@H](O)[C@H]7O)[C@]6(C)CC[C@H]5C4(C)C)O[C@H](CO[C@@H]4OC[C@@H](O)[C@H](O)[C@H]4O)[C@@H](O)[C@@H]3O)O[C@@H](C)[C@H](O)[C@H]2O)O[C@H](CO)[C@@H](O)[C@@H]1O`, the result was Active.

Values taken from ChEMBL document CHEMBL5137127, “Astramalabaricosides A-T, Highly Oxygenated Malabaricane Triterpenoids with Migratory Inhibitory Activity from Astragalus membranaceus var. mongholicus” (J Nat Prod, 2022).
